For 19 compounds, Ki and Ratio Ki results are on record in ChEMBL document CHEMBL3397029, “Development of potent dopamine-norepinephrine uptake inhibitors (DNRIs) based on a (2S,4R,5R)-2-benzhydryl-5-((4-methoxybenzyl)amino)tetrahydro-2H-pyran-4-ol molecular template” (Bioorg Med Chem, 2015).

In general, Ki refers to the dissociation constant of the complex between target and ligand, obtained from inhibition or displacement.

Test [1] deals with Norepinephrine transporter (Rattus norvegicus, UniProt Q9WTR4). Briefly: Inhibition of [ring 2,5,6-3H]dopamine reuptake in rat cerebral cortex NET. In kind it is tissue-based.
Norepinephrine transporter, sequence (Q9WTR4 whole entry): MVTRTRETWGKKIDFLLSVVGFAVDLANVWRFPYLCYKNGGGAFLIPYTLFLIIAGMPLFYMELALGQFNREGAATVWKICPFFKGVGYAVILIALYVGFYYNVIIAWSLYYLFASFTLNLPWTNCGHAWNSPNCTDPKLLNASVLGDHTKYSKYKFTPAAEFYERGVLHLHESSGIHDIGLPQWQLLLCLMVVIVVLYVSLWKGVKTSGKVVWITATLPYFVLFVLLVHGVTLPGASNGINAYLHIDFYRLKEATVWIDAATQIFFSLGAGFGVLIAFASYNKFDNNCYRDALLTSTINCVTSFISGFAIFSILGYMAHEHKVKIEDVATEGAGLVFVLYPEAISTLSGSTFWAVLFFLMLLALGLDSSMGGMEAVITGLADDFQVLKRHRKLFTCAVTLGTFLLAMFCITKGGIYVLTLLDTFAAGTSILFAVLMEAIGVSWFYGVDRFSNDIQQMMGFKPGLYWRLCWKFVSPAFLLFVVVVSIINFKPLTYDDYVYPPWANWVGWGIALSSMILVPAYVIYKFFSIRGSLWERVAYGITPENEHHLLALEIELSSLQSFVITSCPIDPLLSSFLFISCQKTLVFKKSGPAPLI
Test [2] concerns the target Sodium-dependent dopamine transporter (Rattus norvegicus, UniProt P23977). The test is described as follows: Inhibition of [ring 2,5,6-3H]dopamine reuptake in rat striatum DAT. In kind it is tissue-based.
Test [3] has as its target Sodium-dependent serotonin transporter (Rattus norvegicus, UniProt P31652). The test is described as follows: Inhibition of [1,2-3H]serotonin reuptake in rat cerebral cortex SERT. In kind it is tissue-based.
Test [4] addresses Sodium-dependent serotonin transporter (Rattus norvegicus) (UniProt P31652). Briefly: Ratio of fluoxetine Ki to compound Ki for rat cerebral cortex SERT. In kind it is tissue-based.
The species entered for test [5] is Rattus norvegicus. Briefly: Selectivity ratio of Ki for rat cerebral cortex NET to Ki for rat cerebral cortex SERT.
The species entered for test [6] is Rattus norvegicus. Briefly: Selectivity ratio of Ki for rat striatum DAT to Ki for rat cerebral cortex SERT. In kind it is tissue-based.

Sodium-dependent dopamine transporter, sequence (P23977 whole entry): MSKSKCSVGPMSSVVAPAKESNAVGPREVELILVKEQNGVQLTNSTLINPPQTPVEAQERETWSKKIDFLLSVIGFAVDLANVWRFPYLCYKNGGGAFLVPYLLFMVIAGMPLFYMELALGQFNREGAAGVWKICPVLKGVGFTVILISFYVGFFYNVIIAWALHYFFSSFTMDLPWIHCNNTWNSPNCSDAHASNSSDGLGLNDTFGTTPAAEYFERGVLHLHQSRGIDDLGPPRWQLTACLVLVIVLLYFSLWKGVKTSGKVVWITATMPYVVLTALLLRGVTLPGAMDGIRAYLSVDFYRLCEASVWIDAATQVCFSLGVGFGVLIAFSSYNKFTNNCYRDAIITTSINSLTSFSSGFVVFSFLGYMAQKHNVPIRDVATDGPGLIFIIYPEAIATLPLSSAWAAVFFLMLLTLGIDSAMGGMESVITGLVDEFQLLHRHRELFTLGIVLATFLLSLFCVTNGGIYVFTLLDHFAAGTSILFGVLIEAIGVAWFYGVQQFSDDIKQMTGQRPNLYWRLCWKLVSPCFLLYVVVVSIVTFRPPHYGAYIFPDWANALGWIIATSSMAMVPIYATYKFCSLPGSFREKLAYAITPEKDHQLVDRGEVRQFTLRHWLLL
Sodium-dependent serotonin transporter, sequence (P31652 whole entry): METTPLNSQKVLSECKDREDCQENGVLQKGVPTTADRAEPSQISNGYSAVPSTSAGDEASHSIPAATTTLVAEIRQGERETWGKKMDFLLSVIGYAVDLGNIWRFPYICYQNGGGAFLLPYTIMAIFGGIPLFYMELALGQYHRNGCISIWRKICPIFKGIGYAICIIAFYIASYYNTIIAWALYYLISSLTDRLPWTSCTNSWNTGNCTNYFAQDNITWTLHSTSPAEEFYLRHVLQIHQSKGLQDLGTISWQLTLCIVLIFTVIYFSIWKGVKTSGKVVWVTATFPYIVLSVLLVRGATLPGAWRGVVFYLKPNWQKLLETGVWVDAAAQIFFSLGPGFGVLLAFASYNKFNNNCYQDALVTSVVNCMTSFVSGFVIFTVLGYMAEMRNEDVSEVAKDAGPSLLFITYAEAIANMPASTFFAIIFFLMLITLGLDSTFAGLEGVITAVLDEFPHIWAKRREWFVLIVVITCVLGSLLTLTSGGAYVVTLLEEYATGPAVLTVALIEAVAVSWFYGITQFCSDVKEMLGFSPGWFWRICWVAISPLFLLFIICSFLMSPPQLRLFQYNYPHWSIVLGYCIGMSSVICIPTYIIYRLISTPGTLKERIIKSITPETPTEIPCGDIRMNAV
Sodium-dependent serotonin transporter (Rattus norvegicus), sequence (P31652 whole entry): as above

Consider `COc1cccc(CN[C@@H]2CO[C@H](C(c3ccc(F)cc3)c3ccc(F)cc3)C[C@H]2O)c1`, for which the Ki in test [1] is 28.8 nM.

On to `Oc1ccc(CN[C@@H]2CO[C@H](C(c3ccc(F)cc3)c3ccc(F)cc3)C[C@H]2O)cc1F`, for which the Ki in test [1] worked out at 7.37 nM; in test [2] it was 13.1 nM.

Take `O[C@@H]1C[C@@H](C(c2ccc(F)cc2)c2ccc(F)cc2)OC[C@H]1NCc1ccc2c(c1)OCO2`: the Ki in test [1] came out at 10.2 nM; in test [3] it was 400 nM.

Turning to `O[C@@H]1C[C@@H](C(c2ccc(F)cc2)c2ccc(F)cc2)OC[C@H]1NCc1ccc2occc2c1`, in test [1], the Ki came out at 26.5 nM.

In the case of `COc1ccc(CN[C@@H]2CO[C@H](C(c3ccccc3)c3ccccc3)C[C@H]2O)c(F)c1`, the Ki turned out to be 9.33 nM in test [1], 51.8 nM in test [2] and 64 nM in test [3].

On to `COc1cccc(CN[C@@H]2CO[C@H](C(c3ccccc3)c3ccccc3)C[C@H]2O)c1`, for which, in test [1], the Ki is 5.85 nM.

`O[C@@H]1C[C@@H](C(c2ccccc2)c2ccccc2)OC[C@H]1NCc1ccc2occc2c1`: the Ki in test [1] was 33.6 nM.

Take `COc1cc(O)cc(CN[C@@H]2CO[C@H](C(c3ccc(F)cc3)c3ccc(F)cc3)C[C@H]2O)c1`: the Ki in test [1] is 4.91 nM.

For `COc1cc(O)cc(CN[C@@H]2CO[C@H](C(c3ccccc3)c3ccccc3)C[C@H]2O)c1`, the Ki in test [1] worked out at 44.2 nM.

In turn, `Oc1cc(O)cc(CN[C@@H]2CO[C@H](C(c3ccccc3)c3ccccc3)C[C@H]2O)c1` registered a Ki in test [1] of 152 nM.

Take `COc1ccc(CN[C@@H]2CO[C@H](C(c3ccccc3)c3ccccc3)C[C@H]2O)cc1O`: the affinity in test [1] corresponds to a Ki of 30.2 nM.

For the compound `COc1ccc(CN[C@@H]2CO[C@H](C(c3ccccc3)c3ccccc3)C[C@H]2O)cn1`, the Ki was found to be 38.1 nM in test [1], 44.1 nM in test [2] and 42.2 nM in test [3].

In the case of `O[C@@H]1C[C@@H](C(c2ccc(F)cc2)c2ccc(F)cc2)OC[C@H]1NCc1ccc2c(c1)CCO2`, the Ki in test [1] came out at 25.8 nM.

For `COc1ccc(CN[C@@H]2CO[C@H](C(c3ccc(F)cc3)c3ccc(F)cc3)C[C@H]2O)cn1`, in test [1], the affinity corresponds to a Ki of 28.4 nM.

Take `COc1ccc(CN[C@@H]2CO[C@H](C(c3ccccc3)c3ccccc3)C[C@H]2O)cc1F`: the Ki amounted to 41.6 nM in test [1], 48.2 nM in test [2] and 9.02 nM in test [3].

The compound `COc1cc(CN[C@@H]2CO[C@H](C(c3ccc(F)cc3)c3ccc(F)cc3)C[C@H]2O)ccc1O` displayed a Ki in test [1] of 4.76 nM.

With `c1ccc(C(c2ccccc2)[C@@H]2CC[C@H](NCc3ccc4occc4c3)CO2)cc1`, in test [1], the Ki was found to be 25.2 nM. In addition, the Ratio Ki in test [4] was 20; in the test listed under Rattus norvegicus [5], 35; in the test filed under Rattus norvegicus [6] it was 115.

On to `COc1cc(CN[C@@H]2CO[C@H](C(c3ccccc3)c3ccccc3)C[C@H]2O)ccc1O`, for which the Ki in test [1] worked out at 33.7 nM; in test [3], 223 nM.

Consider `Oc1ccc(CN[C@H]2CC[C@@H](C(c3ccc(F)cc3)c3ccc(F)cc3)OC2)cc1`, for which the Ki was 13.4 nM in test [1] and 334 nM in test [3].
